This is an account of results in patent US20250214942A1, “INHIBITORS OF RECEPTOR INTERACTING PROTEIN KINASE I FOR THE TREATMENT OF DISEASE” (Board of Regents, The University of Texas System, priority 2019, published 2025).

One test deals with RIPK1 (Homo sapiens (Human), UniProt Q13546). The test is described as follows: ADP-Glo kinase assay (RIPK1 activity, conversion of ATP to ADP). The format is biochemical. Particulars: 5 nM RIPK1, 50 μM ATP, 6 h reaction, read-out: RIPK1 Enzyme Avg IC50. On the procedure:
In order to measure RIPK1 activity the ADP-Glo kinase assay (Promega, Catalog #V7002) was used to measure the conversion of ATP to ADP. This enzymatic assay was performed in a 384-well white, Optiplate (Perkin Elmer, Catalog #6007299) with assay buffer consisting of 50 mM HEPES pH 7.5 (Gibco, Catalog #15630-080), 50 mM NaCl (Teknova, Catalog #S0252), 30 mM MgCl2 (Ambion, Catalog #AM9530G), 1 mM DTT (Santa Cruz Biotechnology, Catalog #sc-29089), 0.05% BSA (Sigma, Catalog #A3059-50G) and 0.02% CHAPS (Sigma, Catalog #C5070-5G). Stock solutions of the test compounds were prepared in 100% DMSO (Sigma, Catalog #D2650) and serially diluted 1:3 using 100% DMSO. Compounds were additionally diluted 1:40 in assay buffer, and 2 μL/well were transferred to the assay plate. 4 μL/well (final concentration of 5 nM) of RIPK1 protein (SignalChem, Catalog #R07-1IG-05) diluted in assay buffer and added to the assay plate followed by a 10 minute preincutation at rt. 4 μL/well of ATP (Promega, Catalog #V7002) (final concentration of 50 μM) diluted in assay buffer were then added to the assay plate followed by a 6 h reaction time. Final concentrations of RIPK1 and ATP refer to a 10 μL volume. Luminescence was measured using a BioTek Synergy™ NEO plate reader. IC50 values were calculated using a four-parameter logistic curve fit using Genedata Screener software.

In test [1] the test system is human monocytic cell line U937. The test is described as follows: Human U937 cellular necroptosis assay (TNFalpha + z-VAD-FMK, Cell Titer-Glo viability). The settings on record: Homo sapiens, U-937, 22 h, U937 cells, 25 ng/mL human TNFalpha + 25 μM z-VAD-FMK, read-out: hU937 Avg IC50. The format is cell-based. An outline of the steps: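 Cells resuspended in phenol red-free RPMI with 10% FBS, stimulated with 25 ng/mL human TNFalpha plus 25 μM z-VAD-FMK, then given serially diluted compound for 22 h at 37° C, 5% CO2. Viability by Cell Titer-Glo 2.0 luminescence; IC50 from four-parameter logistic fit, averaged across runs.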

Values joined by “and” are separate entries in the source; they are usually repeats but may differ in a detail not shown here. Identical values can stand only once. Like-named read-outs stand apart in the source and are kept apart here. A value given as a limit tells only on which side of the number the result lay.

Chain of RIPK1 (Q13546 1-327): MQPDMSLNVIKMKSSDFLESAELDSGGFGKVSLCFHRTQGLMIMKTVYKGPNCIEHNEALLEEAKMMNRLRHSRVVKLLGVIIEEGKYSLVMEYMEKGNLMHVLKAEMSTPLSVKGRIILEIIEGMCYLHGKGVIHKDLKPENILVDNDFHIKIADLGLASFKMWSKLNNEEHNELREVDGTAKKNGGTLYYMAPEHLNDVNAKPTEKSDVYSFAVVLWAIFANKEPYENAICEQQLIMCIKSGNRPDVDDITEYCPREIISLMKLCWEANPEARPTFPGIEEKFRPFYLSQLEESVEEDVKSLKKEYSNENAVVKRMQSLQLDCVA

As to `NC(=O)c1cc(OCC23CC(C(=O)N4N=CCC4c4cc(F)cc(F)c4)(C2)C3)ncn1` (stereo not drawn) [Example 8, 6-((3-(5-(3,5-Difluorophenyl)-4,5-dihydro-1H-pyrazole-1-carbonyl)bicyclo[1.1.1]pentan-1-yl)methoxy)pyrimidine-4-carboxamide], the IC50 at RIPK1 was determined as 28 nM; in test [1], 51 nM.

On to `Cc1cnc(C2CC=NN2C(=O)C23CC(Cn4cc(C#N)cn4)(C2)C3)cn1` (stereo not drawn) [Example 131, 1-((3-(5-(5-methylpyrazin-2-yl)-4,5-dihydro-1H-pyrazole-1-carbonyl)bicyclo[1.1.1]-pentan-1-yl)methyl)-1H-pyrazole-4-carbonitrile], for which the figures for the IC50 (at RIPK1; in test [1]) were 375 nM and 1920 nM, respectively.

Consider `O=C(N1CC(F)CC1c1cccc(F)c1)C12CC(COc3ccccc3)(C1)C2` (stereo not drawn) [Example 31, (4-Fluoro-2-(3-fluorophenyl)pyrrolidin-1-yl)(3-(phenoxymethyl)-bicyclo[1.1.1]pentan-1-yl)methanone], for which the half-inhibitory concentration (IC50) at RIPK1 was 55 nM; in test [1], 462 nM.

`O=C(N1N=CCC1c1cc(F)ccc1F)C12CC(Cn3ncc4c(F)cccc43)(C1)C2` (stereo not drawn) [Example 84, (5-(2,5-difluorophenyl)-4,5-dihydro-1H-pyrazol-1-yl)(3-((4-fluoro-1H-indazol-1-yl)-methyl)bicyclo[1.1.1]pentan-1-yl)methanone]: the half-inhibitory concentration (IC50) at RIPK1 stood at 22 nM; in test [1] it was 3 nM.

With `O=C(N1N=CCC1c1cc(F)cc(F)c1)C12CC(Cn3ncc4cccnc43)(C1)C2` (stereo not drawn) [Example 89, (3-((1H-pyrazolo[3,4-b]-pyridin-1-yl)methyl)bicyclo-[1.1.1]pentan-1-yl)(5-(3,5-difluorophenyl)-4,5-dihydro-1H-pyrazol-1-yl)methanone], the figures for the IC50 (on RIPK1; in test [1]) were 25 nM and 137 nM, respectively.

Regarding `COc1cnn(CC23CC(C(=O)N4N=CCC4c4cc(F)cc(F)c4)(C2)C3)c1` (stereo not drawn) [Example 160, (5-(3,5-difluorophenyl)-4,5-dihydro-1H-pyrazol-1-yl)(3-((4-methoxy-1H-pyrazol-1-yl)methyl)bicyclo[1.1.1]-pentan-1-yl)methanone], the figures for the half-maximal inhibitory concentration (IC50) (at RIPK1; in test [1]) were 82 nM and 404 nM, respectively.

As to `N#Cc1cnn(CC23CC(C(=O)N4N=CCC4c4cc(F)cc(F)c4)(C2)C3)c1` (stereo not drawn) [Example 71, 1-((3-(5-(3,5-difluorophenyl)-4,5-dihydro-1H-pyrazole-1-carbonyl)bicyclo[1.1.1]-pentan-1-yl)methyl)-1H-pyrazole-4-carbonitrile], the 50% inhibitory concentration (IC50) on RIPK1 stood at 39 nM; in test [1], 134 nM.

Consider `O=C(N1N=CCC1c1cc(F)cc(F)c1)C12CC(Cn3cc(F)c4ncc(F)cc43)(C1)C2` (stereo not drawn) [Example 161, (3-((3,6-difluoro-1H-pyrrolo-[3,2-b]pyridin-1-yl)methyl)-bicyclo[1.1.1]pentan-1-yl)(5-(3,5-difluorophenyl)-4,5-dihydro-1H-pyrazol-1-yl)methanone], for which the half-inhibitory concentration (IC50) at RIPK1 turned out to be 50 nM; in test [1] it was 157 nM.

For the molecule `N#Cc1ccc(OCC23CC(C(=O)N4N=CCC4c4cc(F)cc(F)c4)(C2)C3)c(Cl)c1` (stereo not drawn) [Example 202, 3-Chloro-4-((3-(5-(3,5-difluorophenyl)-4,5-dihydro-1H-pyrazole-1-carbonyl)bicyclo[1.1.1]pentan-1-yl)methoxy)benzonitrile], the values for the IC50 (at RIPK1; in test [1]) were 32 nM and 18 nM, respectively.

In the case of `N#Cc1ccnc(OCC23CC(C(=O)N4CC(F)CC4c4cccc(F)c4)(C2)C3)c1` (stereo not drawn) [Example 26, 2-((3-(4-Fluoro-2-(3-fluorophenyl)pyrrolidine-1-carbonyl)-bicyclo[1.1.1]pentan-1-yl)methoxy)isonicotinonitrile], the IC50 at RIPK1 was found to be 59 nM; in test [1] it was 472 nM.

On to `O=C(N1N=CCC1c1cc(F)cc(F)c1)C12CC(Cn3nc(Cl)c4ccccc43)(C1)C2` (stereo not drawn) [Example 141, (3-((3-chloro-1H-indazol-1-yl)methyl)bicyclo[1.1.1]-pentan-1-yl)(5-(3,5-difluorophenyl)-4,5-dihydro-1H-pyrazol-1-yl)methanone], for which the IC50 at RIPK1 worked out at 34 nM; in test [1], 58 nM.

With `CN(C)C(=O)C12CC(C(=O)N3N=CCC3c3cc(F)cc(F)c3)(C1)C2` (stereo not drawn) [Example 10, 3-(5-(3,5-Difluorophenyl)-4,5-dihydro-1H-pyrazole-1-carbonyl)-N,N-dimethylbicyclo[1.1.1]pentane-1-carboxamide], at RIPK1, the IC50 was found to be 2910 nM.

Consider `Cc1cccc(C2CCCN2C(=O)C23CC(C2)C3)c1` (stereo not drawn) [Example 113, bicyclo[1.1.1]pentan-1-yl(2-(m-tolyl)pyrrolidin-1-yl)methanone], for which the IC50 on RIPK1 was 4230 nM.

As for “(5-(3,5-difluorophenyl)-4,5-dihydro-1H-pyrazol-1-yl)(3-((3-methyl-1H-pyrazol-1-yl)methyl)bicyclo[1.1.1]-pentan-1-yl)methanone and (5-(3,5-difluorophenyl)-4,5-dihydro-1H-pyrazol-1-yl)(3-((5-methyl-1H-pyrazol-1-yl)methyl)bicyclo[1.1.1]-pentan-1-yl)methanone [Example 190]”, the IC50 on RIPK1 is 30 nM.

`N#Cc1cc(OCC23CC(C(=O)N4CC(F)CC4c4cccc(F)c4)(C2)C3)ccn1` (stereo not drawn) [Example 99, 4-((3-(4-fluoro-2-(3-fluorophenyl)pyrrolidine-1-carbonyl)bicyclo[1.1.1]-pentan-1-yl)methoxy)-picolinonitrile]: the half-maximal inhibitory concentration (IC50) on RIPK1 stood at 280 nM.

Take “(3-((3-cyclopropyl-1H-pyrazol-1-yl)methyl)-bicyclo[1.1.1]pentan-1-yl)(5-(3,5-difluorophenyl)-4,5-dihydro-1H-pyrazol-1-yl)methanone and (3-((5-cyclopropyl-1H-pyrazol-1-yl)methyl)-bicyclo[1.1.1]pentan-1-yl)(5-(3,5-difluorophenyl)-4,5-dihydro-1H-pyrazol-1-yl)methanone [Example 191]”: at RIPK1, the concentration for half-maximal inhibition (IC50) came out at 74 nM.

As for `O=C(N1N=CCC1c1cc(F)cc(F)c1)C12CC(Cn3cc(CO)nn3)(C1)C2` (stereo not drawn) [Example 150, (5-(3,5-difluorophenyl)-4,5-dihydro-1H-pyrazol-1-yl)(3-((4-(hydroxymethyl)-1H-1,2,3-triazol-1-yl)methyl)-bicyclo[1.1.1]pentan-1-yl)methanone], the 50% inhibitory concentration (IC50) at RIPK1 came out at 5460 nM.

`O=C(N1N=CCC1c1cc(F)cc(F)c1)C12CC(CN3CC(c4ccccc4)C3)(C1)C2` (stereo not drawn) [Example 154, (5-(3,5-difluorophenyl)-4,5-dihydro-1H-pyrazol-1-yl)(3-((3-phenylazetidin-1-yl)-methyl)bicyclo[1.1.1]pentan-1-yl)methanone]: the IC50 at RIPK1 was determined as 4860 nM.

On to `O=C(N1CCC(Oc2ccccc2)C1)C12CC(F)(C1)C2` (stereo not drawn) [Example 114, (3-fluorobicyclo[1.1.1]-pentan-1-yl)(3-phenoxypyrrolidin-1-yl)methanone], for which the IC50 at RIPK1 is > 16700 nM and 8900 nM.

`Cc1cccc(C2CCCN2C(=O)C23CC(NC(=O)c4ccccc4)(C2)C3)c1` (stereo not drawn) [Example 117, N-(3-(2-(m-tolyl)pyrrolidine-1-carbonyl)bicyclo[1.1.1]-pentan-1-yl)benzamide]: on RIPK1 (footnote symbol (a)), the half-inhibitory concentration (IC50) was above 50000 nM.

For `N#Cc1cnc(OCC23CC(C(=O)N4CC(F)CC4c4cccc(F)c4)(C2)C3)nc1` (stereo not drawn) [Example 100, 2-((3-(4-fluoro-2-(3-fluorophenyl)pyrrolidine-1-carbonyl)bicyclo[1.1.1]-pentan-1-yl)methoxy)-pyrimidine-5-carbonitrile], the IC50 at RIPK1 is 284 nM.

`CS(=O)(=O)C1CN(CC23CC(C(=O)N4N=CCC4c4cc(F)cc(F)c4)(C2)C3)C1` (stereo not drawn) [Example 80, (5-(3,5-difluorophenyl)-4,5-dihydro-1H-pyrazol-1-yl)(3-((3-(methylsulfonyl)azetidin-1-yl)methyl)bicyclo[1.1.1]-pentan-1-yl)methanone]: the IC50 at RIPK1 came to 24700 nM.

For `N#Cc1cnn(CC23CC(C(=O)N4CC(F)CC4c4cccc(F)c4)(C2)C3)c1` (stereo not drawn) [Example 33, 1-((3-(4-Fluoro-2-(3-fluorophenyl)pyrrolidine-1-carbonyl)-bicyclo[1.1.1]pentan-1-yl)methyl)-1H-pyrazole-4-carbonitrile], the IC50 on RIPK1 was 466 nM.

In the case of `O=C(N1CC[C@@H](Oc2cc(F)ccc2F)C1)C12CC(CO)(C1)C2` [Example 38, (R)-(3-(2,5-Difluorophenoxy)pyrrolidin-1-yl)(3-(hydroxymethyl)-bicyclo[1.1.1]pentan-1-yl)methanone], the concentration for half-maximal inhibition (IC50) on RIPK1 (footnote symbol (a)) is above 50000 nM.

For the molecule `O=C(N1CC(F)CC1c1cccc(F)c1)C12CC(C(O)c3ccccc3)(C1)C2` (stereo not drawn) [Example 40, (4-Fluoro-2-(3-fluorophenyl)pyrrolidin-1-yl)(3-(hydroxy(phenyl)methyl)-bicyclo[1.1.1]pentan-1-yl)methanone], the IC50 on RIPK1 was found to be 4450 nM.

As usually defined, the IC50 is the concentration that gives 50% inhibition.
